Source: paper PMC4884932, “Selective brain penetrable Nurr1 transactivator for treating Parkinson's disease” (Oncotarget, 2016)
Where two headings read alike, the source gives them in different places.

Tests used:
[1] = Plasma protein binding by equilibrium dialysis, rat plasma; assay type: in vitro ADME; conditions: K3EDTA control plasma, 37°C, read-out: plasma protein binding, bound (converted)
Procedure: SD male rats were grouped into four groups: vehicle, 1mg/kg/day, 3mg/kg/day and 10mg/kg/day. Rats were treated with the designated dose by daily gavage. Acute plasma PK was conducted on day one and acute-on-chronic plasma PK was conducted on day 24. Pharmacokinetic assessment was conducted by collecting of blood at baseline (prior gavage), 0.25, 0.5, 1, 2, 4, 8, 12 and 24h post gavage. […] The spiked plasma was dialyzed at 37°C against an isotonic sodium phosphate buffer to achieve equilibrium. At the end of dialysis, the plasma and buffer level of IRX4204 were quantified by LC/MS/MS.

[2] = Plasma pharmacokinetics after oral gavage; assay type: in vivo; conditions: SD, rat
Procedure: […] Rats were treated with the designated dose by daily gavage. Acute plasma PK was conducted on day one and acute-on-chronic plasma PK was conducted on day 24. Pharmacokinetic assessment was conducted by collecting of blood at baseline (prior gavage), 0.25, 0.5, 1, 2, 4, 8, 12 and 24h post gavage. […] The spiked plasma was dialyzed at 37°C against an isotonic sodium phosphate buffer to achieve equilibrium. At the end of dialysis, the plasma and buffer level of IRX4204 were quantified by LC/MS/MS.
The LC/MS system was comprised of Waters Acquity Ultra Performance Liquid Chromatography (UPLC) coupled to a XEVO-TQS (Waters). The samples were analyzed by reverse-phase HPLC using a Waters Atlantis T3 column (150 × 2.1mm, 5um). The mobile phase was nebulized using heated nitrogen in a Z-spray source/interface set to electrospray negative ionization mode. The ionized compounds were detected using MS/MS. […] The detection was linear between 2.5nM to 10nM.

6-OHDA lesioned rats [3] = test: Dopamine and metabolites in the striatum by HPLC, 6-OHDA lesioned rats; assay type: in vivo, rat; conditions: 10mg/kg/day gavage for three weeks, p < 0.01
Procedure: (§1) All surgical procedures were performed under general anesthesia with ketamine/xylazine. 2μl 6-OHDA (20 mg/ml in 0.02% ascorbic acid) was stereotaxically injected into the right striatum of male SD rats. Lesion coordinates were set according to bregma and dura in mm: ML-3.7; AP-1.0; DV-5.5. The injection rate was 2μl/5 min and the injecting needle was left for 2 minutes after injection to avoid back flow. Apomorphine-induced rotations (see below) were assessed three days post-lesion and rats with ≥ 30 full contralateral rotation/30 minutes were included in the study.
Rats were randomly grouped into vehicle control group (n = 11) and drug treatment group (n = 10). […] The control group received DMSO/corn oil (vehicle). […]
The left and right striatum were isolated and homogenized with artificial cerebrospinal fluid and centrifuged at x10,000 g for 15 minutes. Protein content of the supernatant was measured by Bradford assay (Bio-Rad). Dopamine, HVA and DOPAC were measured using an isocratic HPLC system with electrochemical detection, consisting of a pump (ESA model 582 [ESA Chelmsford, MA]), automatic injector (ESA model 542 Autosampler), and a Coulochem III detector (ESA) in conjunction with a guard cell (ESA model 5020) and an analytical cell (ESA model 5014B). […] Data were collected and analyzed using the EZStart software (Agilent Technologies, Santa Clara, CA). […]

6-OHDA lesioned rats [4] = test: TH-immunoreactive neuron count in the SN of 6-OHDA lesioned rats; assay type: in vivo, rat; conditions: 10mg/kg/day gavage for three weeks, compared to the vehicle-treated group, p < 0.05
Procedure: as §1
Rats were randomly grouped into vehicle control group (n = 11) and drug treatment group (n = 10). […] The control group received DMSO/corn oil (vehicle). The treatment continued for three weeks.
The caudal portion of the brains were sectioned in the coronal plane on a cryostat at 12 μm. From a random start corresponding to SNpc position, every 12th section was selected -, fixed with 4% paraformaldehyde and processed for tyrosine hydroxylase (TH) staining using mouse monoclonal anti-TH antibody (1:2000, Chemicon) and the Vectastain Elite ABC kit (Vector Lab) according to manufacturer's instruction. TH positive neurons were counted as described.

[5] = female, 1 mg/kg/day, 1mg/kg/day gavage, Week 4
[6] = female, 1 mg/kg/day, Female, 1mg/kg/day gavage, Day 1
[7] = female, 3 mg/kg/day, 3mg/kg/day gavage, Week 4
[8] = female, 3 mg/kg/day, Female, 3mg/kg/day gavage, Day 1
[9] = female, 10 mg/kg/day, 10 mg/kg/day gavage, Week 4
[10] = female, 10 mg/kg/day, Female, 10 mg/kg/day gavage, Day 1
[11] = male, 1 mg/kg/day, 1mg/kg/day gavage, Week 4
[12] = male, 1 mg/kg/day, Male, 1mg/kg/day gavage, Day 1
[13] = male, 3 mg/kg/day, 3mg/kg/day gavage, Week 4
[14] = male, 3 mg/kg/day, Male, 3mg/kg/day gavage, Day 1
[15] = male, 10 mg/kg/day, 10 mg/kg/day gavage, Week 4
[16] = male, 10 mg/kg/day, Male, 10 mg/kg/day gavage, Day 1

CC(/C=C/[C@@H]1C[C@]1(C)c1ccc2c(c1)C(C)(C)CCC2(C)C)=C\C(=O)O [IRX4204]
fraction unbound at 1 ug/ml [1]: 0.0249
Cmax [2, 5]: 0.0434 µg/mL
Tmax [2, 5]: 15 min
Cmax [2, 6]: 0.12 µg/mL
Tmax [2, 6]: 30 min
AUC(0-t) ([2]; female, 1 mg/kg/day, Female, 1mg/kg/day gavage, Day 1, read-out: AUC0-24): 0.251 µg·h/mL
AUC(0-t) ([2]; female, 1 mg/kg/day, Female, 1mg/kg/day gavage, Week 4, read-out: AUC0-24): 0.136 µg·h/mL
Cmax [2, 7]: 0.101 µg/mL
Tmax [2, 7]: 60 min
Cmax [2, 8]: 0.362 µg/mL
Tmax [2, 8]: 30 min
AUC(0-t) ([2]; female, 3 mg/kg/day, Female, 3mg/kg/day gavage, Day 1, read-out: AUC0-24): 0.975 µg·h/mL
AUC(0-t) ([2]; female, 3 mg/kg/day, Female, 3mg/kg/day gavage, Week 4, read-out: AUC0-24): 0.344 µg·h/mL
Cmax [2, 9]: 0.667 µg/mL
Tmax [2, 9]: 15 min
Cmax [2, 10]: 0.974 µg/mL
Tmax [2, 10]: 30 min
AUC(0-t) ([2]; female, 10 mg/kg/day, Female, 10 mg/kg/day gavage, Day 1, read-out: AUC0-24): 2.44 µg·h/mL
AUC(0-t) ([2]; female, 10 mg/kg/day, Female, 10 mg/kg/day gavage, Week 4, read-out: AUC0-24): 0.94 µg·h/mL
Cmax [2, 11]: 0.0257 µg/mL
Tmax [2, 11]: 15 min
Cmax [2, 12]: 0.0589 µg/mL
Tmax [2, 12]: 30 min
AUC(0-t) ([2]; male, 1 mg/kg/day, Male, 1mg/kg/day gavage, Day 1, read-out: AUC0-24): 0.14 µg·h/mL
AUC(0-t) ([2]; male, 1 mg/kg/day, Male, 1mg/kg/day gavage, Week 4, read-out: AUC0-24): 0.0275 µg·h/mL
Cmax [2, 13]: 0.0545 µg/mL
Tmax [2, 13]: 30 min
Cmax [2, 14]: 0.198 µg/mL
Tmax [2, 14]: 30 min
AUC(0-t) ([2]; male, 3 mg/kg/day, Male, 3mg/kg/day gavage, Day 1, read-out: AUC0-24): 0.484 µg·h/mL
AUC(0-t) ([2]; male, 3 mg/kg/day, Male, 3mg/kg/day gavage, Week 4, read-out: AUC0-24): 0.28 µg·h/mL
Cmax [2, 15]: 0.0772 µg/mL
Tmax [2, 15]: 15 min
Cmax [2, 16]: 0.542 µg/mL
Tmax [2, 16]: 15 min
AUC(0-t) ([2]; male, 10 mg/kg/day, Male, 10 mg/kg/day gavage, Day 1, read-out: AUC0-24): 1.49 µg·h/mL
AUC(0-t) ([2]; male, 10 mg/kg/day, Male, 10 mg/kg/day gavage, Week 4, read-out: AUC0-24): 0.422 µg·h/mL
striatal dopamine loss in the lesioned side (6-OHDA lesioned rats [3]): much greater in the vehicle-treated group relative to the IRX4204 group
loss of TH-immunoreactive neurons in the SN (6-OHDA lesioned rats [4]): significantly reduced the loss
